Test results as given in US9227971B2, “Pyrazolo[1,5-a]pyrimidine compounds as mTOR inhibitors” (Merck Sharp & Dohme Corp., priority 2010, dated 2016).
Where two headings read alike, the source gives them in different places.

What was measured:
[1] = tested on: phosphorylated AKT Ser473 (pAKT S473), mTORC2 activity, PC3 cells; assay: mTOR target engagement assay, immunofluorescent cell-based, pAKT S473 readout (mTORC2 activity)
In short: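 After blocking, cells were stained overnight at 4 °C with anti-pAKT S473 antibody, then a fluorescent secondary; inhibition was read as reduced fluorescence intensity.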

[2] = tested on: phosphorylated 4E-BP1 Thr37/46 (p4E-BP1 Thr37/46), mTORC1 activity, PC3 cells; assay: mTOR target engagement assay, immunofluorescent cell-based, p4E-BP1 Thr37/46 readout (mTORC1 activity); conditions: read-out: p4E-BP1 Thr37/46 IC50
In short: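 Seed PC3 cells overnight; treat with compound dilutions for ninety minutes at 37° C; fix with glyoxal and block; stain with anti-p4E-BP1 Thr37/46 overnight at 4° C, then fluorescent secondary; read fluorescence and fit IC50 against DMSO-only controls.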

[3] = Homo sapiens, PC-3, PC3 cells, compound treatment ninety minutes at 37° C.
[4] = Homo sapiens, PC-3, Table 6-1, PC3 cells
[5] = Homo sapiens, PC-3, Table 3-1, PC3 cells

CC(=O)c1c([C@@H]2C[C@H]3CC[C@@H](C2)N3C(=O)CO)nc2c(-c3ccc(C(C)(C)O)nc3)cnn2c1N [Compound 7.8, 1-((1R,3s,5S)-3-(6-acetyl-7-amino-3-(6-(2-hydroxypropan-2-yl)pyridin-3-yl)pyrazolo[1,5-a]pyrimidin-5-yl)-8-azabicyclo[3.2.1]octan-8-yl)-2-hydroxyethanone]
IC50 [1, 3]: 100 to 1000 nM
IC50 [2, 3]: 100 to 1000 nM

CC(=O)c1c([C@@H]2C[C@H]3CC[C@@H](C2)N3C(=O)c2nnc[nH]2)nc2c(-c3cnn(CCO)c3)cnn2c1N [Compound 1.1.155, 1-(5-((1R,3s,5S)-8-(4H-1,2,4-triazole-3-carbonyl)-8-azabicyclo[3.2.1]octan-3-yl)-7-amino-3-(1-(2-hydroxyethyl)-1H-pyrazol-4-yl)pyrazolo[1,5-a]pyrimidin-6-yl)ethanone]
IC50 [1, 3]: 1000 to 10000 nM
IC50 [2, 3]: 1000 to 10000 nM

Cc1cnc(-c2ccc(-c3cnn4c(N)c(C5CC5)c([C@@H]5C[C@H]6CC[C@@H](C5)N6C(=O)CO)nc34)cn2)[nH]1 [Compound 6.27, 1-((1R,3s,5S)-3-(7-amino-6-cyclopropyl-3-(6-(5-methyl-1H-imidazol-2-yl)pyridin-3-yl)pyrazolo[1,5-a]pyrimidin-5-yl)-8-azabicyclo[3.2.1]octan-8-yl)-2-hydroxyethanone]
IC50 [1, 4]: 1 to 100 nM
IC50 [2, 4]: 1 to 100 nM

Cc1ccc(-c2ccc(-c3cnn4c(N)c(S(C)(=O)=O)c([C@@H]5C[C@H]6CC[C@@H](C5)N6C(=O)c5nnc[nH]5)nc34)cn2)cc1F [Compound 3.45, ((1R,3s,5S)-3-(7-amino-3-(6-(3-fluoro-4-methylphenyl)pyridin-3-yl)-6-(methylsulfonyl)pyrazolo[1,5-a]pyrimidin-5-yl)-8-azabicyclo[3.2.1]octan-8-yl)(4H-1,2,4-triazol-3-yl)methanone]
IC50 [1, 5]: 1 to 100 nM
IC50 [2, 5]: 1 to 100 nM

Cc1n[nH]c(C(=O)N2[C@@H]3CC[C@H]2C[C@H](c2nc4c(-c5ccc(C6(O)CCC6)nc5)cnn4c(N)c2S(C)(=O)=O)C3)n1 [Compound 7.29, ((1R,3s,5S)-3-(7-amino-3-(6-(1-hydroxycyclobutyl)pyridin-3-yl)-6-(methylsulfonyl)pyrazolo[1,5-a]pyrimidin-5-yl)-8-azabicyclo[3.2.1]octan-8-yl)(3-methyl-1H-1,2,4-triazol-5-yl)methanone]
IC50 ([1]; Table 7-2, PC3 cells): 100 to 1000 nM
IC50 ([2]; Table 7-2, PC3 cells): 100 to 1000 nM

CS(=O)(=O)c1c([C@@H]2C[C@H]3CC[C@@H](C2)N3C(=O)c2cc(CN)n[nH]2)nc2c(-c3ccc(-c4ccccc4)nc3)cnn2c1N [Compound 3.85, ((1R,3s,5S)-3-(7-amino-6-(methylsulfonyl)-3-(6-phenylpyridin-3-yl)pyrazolo[1,5-a]pyrimidin-5-yl)-8-azabicyclo[3.2.1]octan-8-yl)(3-(aminomethyl)-1H-pyrazol-5-yl)methanone]
IC50 [1, 5]: 1 to 100 nM
IC50 [2, 5]: 1 to 100 nM

CC(=O)c1c(N2C3CCC2CN(C(=O)[C@@H](C)O)C3)nc2c(-c3ccc(-c4ccccc4)nc3)cnn2c1N [Compound 8.6, (2R)-1-(8-(6-acetyl-7-amino-3-(6-phenylpyridin-3-yl)pyrazolo[1,5-a]pyrimidin-5-yl)-3,8-diazabicyclo[3.2.1]octan-3-yl)-2-hydroxypropan-1-one]
IC50 ([1]; Homo sapiens, PC-3, PC3 cells): 100 to 1000 nM
IC50 ([2]; Homo sapiens, PC-3, PC3 cells): 1000 to 10000 nM

CS(=O)(=O)c1c([C@@H]2C[C@H]3CC[C@@H](C2)N3C(=O)C2(O)CC2)nc2c(-c3ccc(-c4ccccc4)nc3)cnn2c1N [Compound 3.12, ((1R,3s,5S)-3-(7-amino-6-(methylsulfonyl)-3-(6-phenylpyridin-3-yl)pyrazolo[1,5-a]pyrimidin-5-yl)-8-azabicyclo[3.2.1]octan-8-yl)(1-hydroxycyclopropyl)methanone]
IC50 [1, 5]: 100 to 1000 nM
IC50 [2, 5]: 1000 to 10000 nM
